Data as given in PMC11645656, “MRGPRX4 mediates phospho-drug associated pruritus in a humanized mouse model” (Science translational medicine, 2024).
Several values for one entry are separate records, joined by “and”; a condition that tells them apart may be missing. Equal values may be shown once. Where a name gives a salt, the structure may show the parent alone.

Tests used:
NP2-X4+ DRG neurons = test: GCaMP6s calcium imaging of cultured NP2-X4+ DRG neurons; assay type: cell-based, mouse; details: 10 μM phospho-drugs; 1 mM CQ
Excerpt: (§1) Fig. 2. Phosphate monoester prodrugs induce itch in NP2-MRGPRX4+ mice through activating NP2 primary sensory neurons. (A) Mating strategy to generate NP2-X4+ mice. (B) In situ hybridization showing MRGPRX4 transcripts (magenta) in NP2-X4+ DRG as indicated by arrowheads (left) but not in littermate control NP2-WT (right). NP2 subpopulation accounts for 5% of total DRG neurons. DAPI, blue. Scale bar, 50 μm. […]. Data are expressed as mean ± SEM. *p< 0.05, **p< 0.01 and ***p< 0.001 by two-tailed unpaired Student’s t-test. ns = no statistical significance observed. (D and E) Traces of average (top, depicted as mean ± 95% confidence interval) and individual (bottom, reflected by the heatmap) calcium activity, measured by fluorescence intensity normalized to the baseline intensity (FT/F0) over time of NP2-X4+ (D) and NP2-WT (E) DRG neurons labelled with GCaMP6s (n = 110–150 neurons pooled from 3–7 independent culture vessels from 2–4 mice in each condition). 10 μM phospho-drugs and 1 mM CQ were added as indicated by the arrowheads. Neurons with FT/F0 > 1.5 after compound application were considered a positive responder. NP2-X4+: NP2-MRGPRX4+; DRG, dorsal root ganglia; CQ: chloroquine.
The procedures were performed following previously established protocols ([15]). Murine DRGs (from both male and female) were harvested from all spinal segments and digested in dispase (5 mg/ml) / type I collagenase (1 mg/ml) enzyme mix at 37 °C for an hour. Enzyme mix was replaced with complete DH10 media (90% DMEM/F12, 10% FBS, penicillin (100 units/ml), and streptomycin (100 μg/ml)) and gently triturated with 1 ml pipette tip until the media turned cloudy without visible tissue chunks. Dissociated tissues were filtered through a 70 μm filter and spun down 1250 rpm for 5 min at RT. Supernatant was removed and the cell pellet was resuspended in complete DH10 media. Cell suspension was then added on top of poly-D-lysine- and laminin-coated coverslips and sat for 1–2 h at 37°C. Complete DH10 media supplemented with NGF (50 ng/ml) was then added into the vessel. Neurons were allowed to recover overnight at 37°C for the next-day calcium imaging experiment.
Calcium imaging data was collected with a Nikon Eclipse TE 200 microscope. Time series GCaMP6 fluorescence intensity was acquired through the FITC/GFP channel. Before the imaging, cultured neurons were washed and equilibrated in CIB for 30 min at 37°C. In each trial, compounds (as indicated in the results) were added into the imaging chamber after a 30 s baseline GCaMP6 activity was collected. […] Neurons with GCaMP6 signal rose above 50% of the baseline intensity after compound application were counted as positive responders and the percentage of responding neurons was calculated. […]

NP2-WT DRG neurons = test: GCaMP6s calcium imaging of cultured NP2-WT DRG neurons; assay type: cell-based, mouse; details: 10 μM phospho-drugs; 1 mM CQ
Excerpt: as §1, with “Neurons with FT/F0 > 1.5 after compound application were considered a positive responder. NP2-X4+: NP2-MRGPRX4+; DRG, dorsal root ganglia; CQ: chloroquine.” left out
Calcium imaging data was collected with a Nikon Eclipse TE 200 microscope. Time series GCaMP6 fluorescence intensity was acquired through the FITC/GFP channel. […] Neurons with GCaMP6 signal rose above 50% of the baseline intensity after compound application were counted as positive responders and the percentage of responding neurons was calculated. […]

NP2-WT mice = test: Itch behavioral study (scratching bouts after subcutaneous nape injection) in littermate control NP2-WT mice; assay type: in vivo; details: 30 min after injection of 50 μl 10 mM into the nape, each cell one mouse
Excerpt: Fig. 2. Phosphate monoester prodrugs induce itch in NP2-MRGPRX4+ mice through activating NP2 primary sensory neurons. (A) Mating strategy to generate NP2-X4+ mice. (B) In situ hybridization showing MRGPRX4 transcripts (magenta) in NP2-X4+ DRG as indicated by arrowheads (left) but not in littermate control NP2-WT (right). NP2 subpopulation accounts for 5% of total DRG neurons. DAPI, blue. Scale bar, 50 μm. […] . Data are expressed as mean ± SEM. *p< 0.05, **p< 0.01 and ***p< 0.001 by two-tailed unpaired Student’s t-test. ns = no statistical significance observed. (D and E) Traces of average (top, depicted as mean ± 95% confidence interval) and individual (bottom, reflected by the heatmap) calcium activity, measured by fluorescence intensity normalized to the baseline intensity (FT/F0) over time of NP2-X4+ (D) and NP2-WT (E) DRG neurons labelled with GCaMP6s (n = 110–150 neurons pooled from 3–7 independent culture vessels from 2–4 mice in each condition). 10 μM phospho-drugs and 1 mM CQ were added as indicated by the arrowheads. Neurons with FT/F0 > 1.5 after compound application were considered a positive responder. NP2-X4+: NP2-MRGPRX4+; DRG, dorsal root ganglia; CQ: chloroquine.
. All the animals used were heterozygous unless otherwise specified. NP2-X4+ and NP2-WT littermates were generated by crossing Mrgpra3-Cre to Rosa26-lsl-MRGPRX4 as detailed previously ([15]). NP2-X4+ mice were further crossed to homozygous Rosa26-lsl-GCaMP6s to obtain NP2-WT/GCaMP6s and NP2-X4+/GCaMP6s animals. A detailed mating strategy is illustrated in fig. S5. Pirt-Cre-GCaMP6s animals were acquired by crossing Pirt-Cre to homozygous Rosa26-lsl-GCaMP6s. Pirt-Cre animals were generated through homologous recombination as indicated previously ([37]). Rosa26-lsl-GCaMP6s mouse line was provided by Dr. Dwight Bergles’ lab at the Johns Hopkins School of Medicine.

[1] = tested on: NP2-X4+ mice (MRGPRX4 in Mrgpra3+ NP2 sensory neurons); test: Itch behavioral study (scratching bouts after subcutaneous nape injection) in NP2-X4+ mice; assay type: in vivo, mouse; details: for Scratching bouts of individual animals: NP2-X4+, 30 min after injection of 50 μl 10 mM into the nape, each cell one mouse
WT mice = test: Itch behavioral study in WT mice across concentrations (fig. S4)
Description: Experimenters and subjects scoring the recorded videos were both blind to the mouse genotype and tested compounds. Behavioral tests comparing NP2-WT and NP2-X4+ scratching behavior were 6–12weeks old littermates including both genders. In brief, on the day preceding the experiment, animals were acclimated to the test chamber for at least 30 min and the experimenters performed mock injections 1–2 times in between. On the day of experiments, animals were habituated in test chambers for 10 min before receiving subcutaneous injection of 50ul compounds. Videos were recorded for 30 min after the injection. A bout of scratching was defined as a sustained scratching movement initiated by hindpaws toward the injection site (until the pause of the movement / withdrawal of the hindpaw). Scratching bouts were quantified within the 30 min record sessions.

[2] = vs dexamethasone; cited from earlier work
HTLA cells = test: PRESTO-Tango β-arrestin recruitment assay, parental HTLA cells without MRGPRX4 (control, fig. S1); assay type: cell-based
Excerpt: Supplement NIHMS2038790-supplement-table.xlsx, sheet "fig. S1" | column: Concentration (M)

MRGPRX4 (S83) = biological target: T1, MRGPRX4 (S83) (Homo sapiens, UniProt Q96LA9, L83S); test: EC50 determination, intracellular calcium mobilization in MRGPRX4 stably expressed HEK293 cells (FLIPR Calcium 5, Flexstation-3); assay type: cell-based; details: propofol series, individual replicate values
T1 construct: expressed in transfected cells
Outline: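 HEK293 cells stably expressing receptor (parental HEK293 alongside) loaded with Calcium 5 dye in HBSS/20 mM HEPES, pH 7.4, 1 h at 37 °C, then compounds added. Response = peak minus pre-drug baseline, triplicates averaged; EC50 from 4PL fit.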

T1 sequence (Q96LA9 whole entry L83S): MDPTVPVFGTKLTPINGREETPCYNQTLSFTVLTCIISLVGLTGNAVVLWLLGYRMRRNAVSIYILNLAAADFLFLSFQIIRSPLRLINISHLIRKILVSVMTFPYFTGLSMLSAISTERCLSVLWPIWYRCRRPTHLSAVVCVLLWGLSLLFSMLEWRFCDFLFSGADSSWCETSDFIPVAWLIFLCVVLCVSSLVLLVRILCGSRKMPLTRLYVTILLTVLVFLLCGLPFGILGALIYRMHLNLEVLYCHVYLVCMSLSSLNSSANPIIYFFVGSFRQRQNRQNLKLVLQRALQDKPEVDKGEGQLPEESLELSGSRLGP

CCN(CC)CCCC(C)Nc1ccnc2cc(Cl)ccc12 (stereo not shown) [Chloroquine]
Calcium response of NP2-X4+ neurons (NP2-X4+ DRG neurons): responded | Calcium response of NP2-WT neurons (NP2-WT DRG neurons): responded

C[C@@H]1C[C@H]2[C@@H]3CCC4=CC(=O)C=C[C@]4(C)[C@@]3(F)[C@@H](O)C[C@]2(C)[C@@]1(O)C(=O)COP(=O)(O)O [Dexamethasone phosphate]
Scratching bouts of individual animals (NP2-WT mice): 4 and 14 and 5 (2×) and 8 and 3 (2×) and 18 and 12 and 42 | Calcium response of NP2-X4+ neurons (NP2-X4+ DRG neurons): strong calcium transients | Scratching bouts of individual animals [1]: 19 and 29 and 40 and 22 and 17 and 35 and 2 and 71 and 63 and 41 | Scratching bouts (each well represents individual mouse) (WT mice; 1 mM subcutaneous nape injection): 5 and 12 and 10 and 47 | Scratching bouts (each well represents individual mouse) (WT mice; 10 mM subcutaneous nape injection): 2 and 30 and 18 and 13 | Enhancement of aqueous solubility [2]: more than 500 fold | PRESTO-Tango response (fig. S1), single replicate (HTLA cells; concentration 4.88e-7 M): 0.002254 and 0.004793 and 0.008408 and 0.006888 and 0.003935 and 0.001659 | PRESTO-Tango response (fig. S1), single replicate (HTLA cells; concentration 9.77e-7 M): 0.004343 and 0.01198 and 0.02598 and 0.007642 and 0.02244 and 0.00537 | PRESTO-Tango response (fig. S1), single replicate (HTLA cells; concentration 1.95e-6 M): 0.003939 and 0.005577 and 0.007884 and 0.006351 and 0.008709 and 0.001173 | PRESTO-Tango response (fig. S1), single replicate (HTLA cells; concentration 3.91e-6 M): 0.006644 and 0.008139 and 0.007744 and 0.01012 and 0.008517 and 0.007795 | PRESTO-Tango response (fig. S1), single replicate (HTLA cells; concentration 7.81e-6 M): 0.008709 and 0.01255 and 0.009916 and 0.01429 and 0.003964 and 0.009591 | PRESTO-Tango response (fig. S1), single replicate (HTLA cells; concentration 1.56e-5 M): 0.01013 and 0.0155 and 0.008817 and 0.01021 and 0.0162 and 0.001357 | PRESTO-Tango response (fig. S1), single replicate (HTLA cells; concentration 3.13e-5 M): 0.01293 and 0.02454 and 0.01076 and 0.01089 and 0.02171 and 0.002693 | PRESTO-Tango response (fig. S1), single replicate (HTLA cells; concentration 6.25e-5 M): 0.01139 and 0.03821 and 0.01576 and 0.0127 and 0.01288 and 0.03538 | PRESTO-Tango response (fig. S1), single replicate (HTLA cells; concentration 0.00025 M): 0.01585 and 0.06272 and 0.01054 and 0.02134 and 0.01844 and 0.04104 | PRESTO-Tango response (fig. S1), single replicate (HTLA cells; concentration 0.0005 M): 0.01737 and 0.05973 and 0.009456 and 0.02137 and 0.0304 and 0.02084

CC(C)c1cccc(C(C)C)c1OS(=O)(=O)O [Propofol sulfate]
Scratching bouts of individual animals (NP2-WT mice): 15 and 0 and 6 and 5 and 3 and 11 | Scratching / itch behavior, NP2-X4+ mice vs WT littermates ([1]; 50 μl 10 mM nape injection, 30 min): no differences in itch behavior were detected | Scratching bouts of individual animals [1]: 4 and 14 (2×) and 2 and 12 (2×) and 11 and 42 and 6 | Fig. 1D dose-response, calcium response at Concentration (M) (MRGPRX4 (S83); 9.76563e-7 M): -9.765 and -0.941 and -3.534 and -7.698 and -0.440 and -6.103 and -0.412 and -8.690 and -5.139 | Fig. 1D dose-response, calcium response at Concentration (M) (MRGPRX4 (S83); 1.95313e-6 M): 6.750 and 16.267 and 9.058 and 9.006 and 15.719 and 7.351 and 7.826 and 16.017 and 8.232 | Fig. 1D dose-response, calcium response at Concentration (M) (MRGPRX4 (S83); 3.90625e-6 M): 4.213 and 7.941 and 5.294 and 9.099 and 3.195 and 5.153 and 8.684 and 2.706 and 6.058 | Fig. 1D dose-response, calcium response at Concentration (M) (MRGPRX4 (S83); 7.8125e-6 M): -1.463 and -6.718 and -3.371 and -0.821 and -4.964 and -5.766 and -0.353 and -2.243 and -8.955 | Fig. 1D dose-response, calcium response at Concentration (M) (MRGPRX4 (S83); 1.5625e-5 M): -10.261 and -6.059 and -2.116 and -7.312 and -10.479 and -0.646 and -4.250 and -7.396 and -6.790 | Fig. 1D dose-response, calcium response at Concentration (M) (MRGPRX4 (S83); 3.125e-5 M): -14.578 and -1.085 and -26.180 and -14.763 and -11.464 and -15.617 and -4.490 and -19.590 and -17.764 | Fig. 1D dose-response, calcium response at Concentration (M) (MRGPRX4 (S83); 6.25e-5 M): -6.291 and -44.109 and -11.407 and -17.994 and -28.042 and -15.772 and -23.530 and -32.512 and -5.766 | Fig. 1D dose-response, calcium response at Concentration (M) (MRGPRX4 (S83); 0.00025 M): -9.210 and -19.710 and -18.950 and -19.770 and -23.073 and -5.027 and -19.240 and -15.426 and -13.204 | Fig. 1D dose-response, calcium response at Concentration (M) (MRGPRX4 (S83); 0.0005 M): -0.269 and -0.640 and -0.169 and -0.708 and -0.172 and -0.198 and -0.248 and -0.541 and -0.289 | Fig. 1D dose-response, calcium response at Concentration (M) (MRGPRX4 (S83); 0.001 M): 6.469 and 6.229 and 2.832 and 5.169 and 2.033 and 8.329 and 8.781 and 6.580 and 0.170
